From patent US20070032477A1, “Pteridine derivatives useful for making pharmaceutical compositions” (priority 2003, published 2007)
pIC50: −log10 of the molar value. Structures can show the parent of a compound that is named as a salt.

tested on: production of TNF-α by PBMC in response to stimulation by LPS; assay: TNF-α assay; type: cell-based, human; details: Homo sapiens, LPS 1 μg/ml, 72 hours, sandwich ELISA
Description: Peripheral blood mononuclear cells (herein referred as PBMC), in response to stimulation by lipopolysaccharide (hereinafter LPS), a gram-negative bacterial endotoxin, produce various […], in particular human TNF-α. Inhibition of the activation of PBMC can therefore be measured by the level of suppression of the production of TNF-α by PBMC in response to stimulation by LPS.
Such inhibition measurement was performed as follows: PBMC were isolated from heparinized peripheral blood by density gradient centrifugation over Lymphoprep (commercially available from Nycomed, Norway). LPS was then added to the PMBC suspension in complete medium (10^6 cells/ml) at a final concentration of 1 μg/ml. The pteridine derivative to be tested was added at different concentrations (0.1 μM, 1 μM and 10 μM) and the cells were incubated at 37° C. for 72 hours in 5% CO2. The supernatants were collected, then TNF-α concentrations were measured with respectively an anti-TNF-α antibody in a sandwich ELISA (Duo Set ELISA human TNFα, commercially available from R&D Systems, United Kingdom). The calorimetric reading of the ELISA was measured by a Multiskan RC plate reader (commercially available from ThermoLabsystems, Finland) at 450 nm (reference wavelength: 690 nm). Data analysis was performed with Ascent software 2.6. (also from ThermoLabsystems, Finland): a standard curve (recombinant human TNFα) was drawn and the amount (pg/ml) of each sample on the standard curve was determined.
The % suppression of human TNFα production by the pteridine derivatives of the invention (drugs) was calculated using the formula: [formula]

Molecule	pIC50
COc1ccc(-c2cnc3nc(N)nc(N4CCN(CCN(C)C)CC4)c3n2)cc1OC [Example 181, 2-amino-6-(3,4-dimethoxyphenyl)-4-(4-(2-dimethylaminoethyl)-piperazin-1-yl)-pteridine trihydrochloride salt]	5.06
COc1ccc(-c2cnc3nc(N)nc(N4CCN(CCCN(C)C)CC4)c3n2)cc1OC [Example 182, 2-amino-6-(3,4-dimethoxyphenyl)-4-(4-(3-dimethylaminopropyl)-piperazin-1-yl)pteridine trihydrochloride salt]	5.32

same assay, conditions: LPS 1 μg/ml, 72 hours, sandwich ELISA

Molecule	pIC50
2-amino-4-(1-(2-diethylaminoethyl)-piperazino)-6-(3,4-dimethoxyphenyl)pteridine [Example 127]	5.59
2-amino-6-(3,4-dimethoxyphenyl)-4-((tetrahydrofurfuryl)-piperazin-1-yl)pteridine [Example 169]	6.52
COc1ccc(-c2cnc3nc(N)nc(N4CCN(C(C)=O)CC4)c3n2)cc1OC [Example 8, 2-amino-4-(N-acetylpiperazin-1-yl)-6-(3,4-dimethoxyphenyl)pteridine]	6.40
CCC(=O)N1CCN(c2nc(N)nc3ncc(-c4ccc(OC)c(OC)c4)nc23)CC1 [Example 9, 2-amino-4-[(N-propionyl)-piperazin-1-yl]-6-(3,4-dimethoxyphenyl)pteridine]	6.85
COc1ccc(-c2cnc3nc(N)nc(N4CCN(C(=O)c5ccccc5)CC4)c3n2)cc1OC [Example 11, 2-amino-4-(N-benzoylpiperazin-1-yl)-6-(3,4-dimethoxyphenyl)pteridine]	6.40
COc1ccc(-c2cnc3nc(N)nc(N4CCN(C(=O)c5cccs5)CC4)c3n2)cc1OC [Example 13, 2-amino-4-[(N-2-thiophenecarbonyl)-piperazin-1-yl]-6-(3,4-dimethoxy-phenyl)pteridine]	7.10
CCN(CC)C(=O)N1CCN(c2nc(N)nc3ncc(-c4ccc(OC)c(OC)c4)nc23)CC1 [Example 14, 2-amino-4-[(N-diethylcarbamoyl)-piperazin-1-yl]-6-(3,4-dimethoxy-phenyl)pteridine]	7.22
COc1ccc(-c2cnc3nc(N)nc(N4CCN(C(=O)c5cc(F)c(Cl)nc5Cl)CC4)c3n2)cc1OC [Example 40]	6.15
COc1ccc(-c2cnc3nc(N)nc(N4CCN(C(=O)[C@@H]5CCCN5)CC4)c3n2)cc1OC [Example 62, 2-amino-4-[N-(pyrrolidin-2-(S)-yl)carbonyl-piperazin-1-yl]-6-(3,4-dimethoxy-phenyl)pteridine]	5.12
COC(=O)c1ccc(C(=O)N2CCN(c3nc(N)nc4ncc(-c5ccc(OC)c(OC)c5)nc34)CC2)cc1 [Example 112, 2-amino-4-[N-[4-(methoxycarbonyl)benzoyl]-piperazin-1-yl]-6-(3,4-dimethoxy-phenyl)pteridine]	6.55
COc1ccc(-c2cnc3nc(N)nc(N4CCN(C(=O)CN(C)C)CC4)c3n2)cc1OC [Example 113, 2-amino-4-[N-[4-(dimethylamino)acetyl]-piperazin-1-yl]-6-(3,4-dimethoxy-phenyl)pteridine]	5.49
CCN(C(=O)N1CCN(c2nc(N)nc3ncc(-c4ccc(OC)c(OC)c4)nc23)CC1)c1ccccc1 [Example 118, 2-amino-4-(N-ethyl-N-phenyl-carbamoyl-piperazin-1-yl)-6-(3,4-dimethoxyphenyl)pteridine]	7.15
CCOC(=O)CN1CCN(c2nc(N)nc3ncc(-c4ccc(OC)c(OC)c4)nc23)CC1 [Example 135, 2-amino-4-(2-(piperazin-1-yl)-acetic acid ethyl ester)-6-(3,4-dimethoxyphenyl)pteridine]	6.57
COc1ccc(-c2cnc3nc(N)nc(N4CCN(Cc5ccc(C)cc5)CC4)c3n2)cc1OC [Example 140, 2-amino-4-((4-methylbenzyl)piperazin-1-yl)-6-(3,4-dimethoxyphenyl)pteridine]	5.89
COc1ccc(-c2cnc3nc(N)nc(N4CCN(Cc5ccc6c(c5)OCO6)CC4)c3n2)cc1OC [Example 143, 2-amino-4-(piperonyl-piperazin-1-yl)-6-(3,4-dimethoxyphenyl)pteridine]	6.10
COc1ccc(-c2cnc3nc(N)nc(N4CCN(Cc5cccnc5)CC4)c3n2)cc1OC [Example 156]	6.40
COc1ccc(-c2cnc3nc(N)nc(N4CCN(CC5OCCO5)CC4)c3n2)cc1OC [Example 170, 2-amino-6-(3,4-dimethoxyphenyl)-4-(1,3-dioxolan-2-yl-methylpiperazin-1-yl)pteridine]	6.40

tested on: mixed lymphocyte reaction (PBMC with allogeneic PBMC or Eppstein-Barr Virus-transformed human B cells as stimulator cells); assay: Mixed lymphocyte reaction (MLR) assay; type: cell-based; details: lowest concentration giving 50% suppression of the MLR; [3H]-thymidine
Description: Pteridine derivatives were first dissolved (10 mM) in dimethylsulfoxide (hereinafter referred as DMSO) and further diluted in culture medium before use for the following in vitro experiments. The commercially available culture medium consisted of RPMI-1640+10% foetal calf serum (FCS). Some pteridine derivatives described in the previous examples (as indicated in table 1) were tested in the following mixed lymphocyte reaction (MLR) assay.
Peripheral blood mononuclear cells (hereinafter referred as PBMC) were isolated from heparinized peripheral blood by density gradient centrifugation over Lymphoprep (Nycomed, Maorstua, Norway). Allogeneic PBMC or Eppstein-Barr Virus-transformed human B cells [commercially available under the trade name RPM11788 (ATCC name CCL156)] which strongly express B7-1 and B7-2 antigens were used as stimulator cells after irradiation with 30 Gy. MLR was performed in triplicate wells. After 5 days incubation at 37° C., 1 μCi [^3H]-thymidine was added to each cup. After a further 16 hours incubation, cells were harvested and counted in a […]. Inhibition of proliferation by a compound (drug) described in some of the previous examples was counted using the formula: [formula] wherein cpm is the thymidine count per minute. The MLR assay is regarded by those skilled in the art as an in vitro analogue of the transplant rejection since it is based on the recognition of allogeneic major histocompatibility antigens on the stimulator leukocytes, by responding lymphocytes.

Molecule	pIC50
2-amino-4-(1-(2-diethylaminoethyl)-piperazino)-6-(3,4-dimethoxyphenyl)pteridine [Example 127]	5.04
2-amino-4-(1-(2-imidazol-1-yl-ethyl-piperazine)-6-(3,4-dimethoxyphenyl)pteridine [Example 155]	5.44
2-amino-6-(3,4-dimethoxyphenyl)-4-((tetrahydrofurfuryl)-piperazin-1-yl)pteridine [Example 169]	6.10
CCC(=O)N1CCN(c2nc(N)nc3ncc(-c4ccc(OC)c(OC)c4)nc23)CC1 [Example 9, 2-amino-4-[(N-propionyl)-piperazin-1-yl]-6-(3,4-dimethoxyphenyl)pteridine]	6.30
COc1ccc(-c2cnc3nc(N)nc(N4CCN(C(=O)c5ccccc5)CC4)c3n2)cc1OC [Example 11, 2-amino-4-(N-benzoylpiperazin-1-yl)-6-(3,4-dimethoxyphenyl)pteridine]	6.40
COc1ccc(-c2cnc3nc(N)nc(N4CCN(C(=O)c5cccs5)CC4)c3n2)cc1OC [Example 13, 2-amino-4-[(N-2-thiophenecarbonyl)-piperazin-1-yl]-6-(3,4-dimethoxy-phenyl)pteridine]	7.00
CCN(CC)C(=O)N1CCN(c2nc(N)nc3ncc(-c4ccc(OC)c(OC)c4)nc23)CC1 [Example 14, 2-amino-4-[(N-diethylcarbamoyl)-piperazin-1-yl]-6-(3,4-dimethoxy-phenyl)pteridine]	6.70
COCC(=O)N1CCN(c2nc(N)nc3ncc(-c4ccc(OC)c(OC)c4)nc23)CC1 [Example 41, 2-amino-4-[(N-methoxyacetyl)-piperazin-1-yl]-6-(3,4-dimethoxyphenyl)pteridine]	6.30
COc1ccc(-c2cnc3nc(N)nc(N4CCN(C(=O)c5ccoc5)CC4)c3n2)cc1OC [Example 47, 2-amino-4-[N-(3-furoylcarbonyl)-piperazin-1-yl]-6-(3,4-dimethoxyphenyl)pteridine]	6.52
CC(=O)N1CCN(c2nc(N)nc3ncc(-c4ccccc4)nc23)CC1 [Example 55, 2-amino-4-(N-acetylpiperazin-1-yl)-6-phenyl-pteridine]	5.29
CC(=O)N1CCN(c2nc(N)nc3ncc(-c4ccc(Cl)cc4)nc23)CC1 [Example 58, 2-amino-4-(N-acetylpiperazin-1-yl)-6-(4-chloro-phenyl)pteridine]	5.12
COc1ccc(-c2cnc3nc(N)nc(N4CCN(C(=O)NCc5ccccc5)CC4)c3n2)cc1OC [Example 104, 2-amino-4-(N-benzylcarbamoyl-piperazin-1-yl)-6-(3,4-dimethoxyphenyl)pteridine]	7.74
COc1ccc(-c2cnc3nc(N)nc(N4CCN(C(=O)[C@@H](N)CC(N)=O)CC4)c3n2)cc1OC [Example 111, 2-amino-4-[N-[2-(S),4-diamino-4-oxobutanoyl]-piperazin-1-yl]-6-(3,4-dimethoxyphenyl)pteridine]	5.06
COCCN1CCN(c2nc(N)nc3ncc(-c4ccc(OC)c(OC)c4)nc23)CC1 [Example 122, 2-amino-4-(1-(2-methoxyethyl)piperazino)-6-(3,4-dimethoxyphenyl)pteridine]	6.10
COc1ccc(-c2cnc3nc(N)nc(N4CCN(Cc5ccc(F)cc5)CC4)c3n2)cc1OC [Example 138, 2-amino-4-((4-fluorobenzyl)piperazin-1-yl)-6-(3,4-dimethoxyphenyl)pteridine]	5.22
COc1ccc(-c2cnc3nc(N)nc(N4CCN(c5cccc(C)c5)CC4)c3n2)cc1OC [Example 175, 2-amino-6-(3,4-dimethoxyphenyl)-4-((3-methylphenyl)-piperazin-1-yl)pteridine]	6.40
COc1ccc(-c2cnc3nc(N)nc(N4CCN(C(=O)Nc5ccc(C(F)(F)F)cc5)CC4)c3n2)cc1OC [Example 194, 2-amino-4-(N-4-trifluoromethyl-phenyl-carbamoyl-piperazin-1-yl)-6-(3,4-dimethoxyphenyl)pteridine]	7.28
COc1ccc(-c2cnc3nc(N)nc(N4CCN(C(=O)Nc5ccc(Br)cc5)CC4)c3n2)cc1OC [Example 196, 2-amino-4-(N-4-bromo-phenyl-carbamoyl-piperazin-1-yl)-6-(3,4-dimethoxyphenyl)pteridine]	7.00
COc1ccc(-c2cnc3nc(N)nc(N4CCN(C(=O)Nc5cccc(I)c5)CC4)c3n2)cc1OC [Example 197, 2-amino-4-(N-3-iodo-phenyl-carbamoyl-piperazin-1-yl)-6-(3,4-dimethoxyphenyl)pteridine]	7.40
COc1cc(-c2cnc3nc(N)nc(N4CCN(c5ccc(C)cc5)CC4)c3n2)ccc1OC(C)C [Example 208]	5.36
